Test results taken from patent US10526276B2, “Dream neuronal calcium sensor-modulating compounds, and therapeutic uses thereof” (CONSEJO SUPERIOR DE INVESTIGACIONES CIENTÍFICAS, priority 2014, dated 2020).

Key:
Kv4.3+DREAM channels = target: T1, Kv4.3+DREAM channels (Homo sapiens, UniProt Q9UK17+Q9Y2W7); experiment: Patch-clamp in CHO cells transiently transfected with Kv4.3 in the presence of DREAM; assay type: cell-based; conditions: 100 nM; for inhibitory effect of the Kv4.3+DREAM current (% decrease of the amount of charge passing through the membrane): CHO cells, FIG. 1B
T1 construct: expressed in transfected cells; host or cells: CHO cells, transient transfection
T1 sequence (Q9Y2W7 1-256): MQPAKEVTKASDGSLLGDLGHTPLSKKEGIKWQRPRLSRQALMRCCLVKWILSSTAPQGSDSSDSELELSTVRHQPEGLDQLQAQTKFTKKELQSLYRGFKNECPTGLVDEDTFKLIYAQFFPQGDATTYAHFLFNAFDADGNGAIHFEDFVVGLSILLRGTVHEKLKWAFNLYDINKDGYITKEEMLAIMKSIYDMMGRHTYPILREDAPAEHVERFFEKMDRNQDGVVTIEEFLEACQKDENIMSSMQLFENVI
T1 sequence (Q9UK17 1-655): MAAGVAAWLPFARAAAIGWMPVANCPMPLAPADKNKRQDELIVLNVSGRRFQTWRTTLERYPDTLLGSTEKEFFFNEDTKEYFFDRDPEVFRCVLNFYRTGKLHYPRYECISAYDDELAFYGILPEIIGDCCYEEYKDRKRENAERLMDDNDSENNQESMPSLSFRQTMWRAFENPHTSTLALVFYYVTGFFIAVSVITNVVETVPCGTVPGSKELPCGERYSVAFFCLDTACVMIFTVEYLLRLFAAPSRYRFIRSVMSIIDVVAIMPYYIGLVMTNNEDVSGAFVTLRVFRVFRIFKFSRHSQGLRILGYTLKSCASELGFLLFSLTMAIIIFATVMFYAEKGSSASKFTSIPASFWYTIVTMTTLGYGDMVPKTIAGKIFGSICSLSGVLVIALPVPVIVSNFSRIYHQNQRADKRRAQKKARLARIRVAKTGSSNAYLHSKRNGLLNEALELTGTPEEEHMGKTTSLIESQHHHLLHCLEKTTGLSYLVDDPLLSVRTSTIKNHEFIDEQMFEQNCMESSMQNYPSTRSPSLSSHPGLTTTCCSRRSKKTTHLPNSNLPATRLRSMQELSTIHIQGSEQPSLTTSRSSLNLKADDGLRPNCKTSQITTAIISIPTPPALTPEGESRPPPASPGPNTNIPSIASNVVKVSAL
From the text: (§1) The new compounds synthesised according to this invention have been evaluated in vitro in voltage-binding assays in CHO cells transiently transfected with cDNA encoding Kv4.3 only or Kv4.3 in the presence of DREAM (Kv4.3+DREAM) using the patch-clamp technique. […] For some of the compounds evaluated, this effect is selective and is only observed in the presence of the DREAM channel modulator.

Kv4.3 channels = target: T2, Kv4.3 channels (Homo sapiens, UniProt Q9UK17); experiment: Patch-clamp in CHO cells transiently transfected with Kv4.3 only; assay type: cell-based; conditions: 100 nM, FIG. 1B
T2 construct: expressed in transfected cells; host or cells: CHO cells, transient transfection
T2 sequence (Q9UK17 1-655): T1 sequence (Q9UK17 1-655)
From the text: as §1

[1] = test system: STHdh^Q111/Q111 cells infected with lentivirus expressing the complete human DREAM protein (Q111DR); experiment: Neuroprotection against H2O2-mediated necrosis (LDH release) in Q111DR cells; assay type: cell-based, mouse; conditions: compound 100 nM; H2O2 0.66 mM; FIG. 2
Protocol: FIG. 2. […] RP: Repaniglida.
(§2) In an immortalized cell line of mouse striatum infected with lentivirus STHdh^Q111/Q111 expressing the complete human DREAM protein (Q111DR), the neuroprotective effect of the compounds was tested against necrosis mediated by H2O2 and apoptosis mediated by staurosporine.

[2] = test system: STHdh^Q111/Q111 cells infected with lentivirus expressing the complete human DREAM protein (Q111DR); experiment: Neuroprotection against staurosporine-mediated apoptosis (caspase-3 activation) in Q111DR cells; assay type: cell-based, mouse; conditions: compound 100 nM, 1 h pre-incubation; staurosporine 1 μM for 5 h; compared with repaglinide (RP); FIG. 3
Protocol: FIG. 3. Analysis of the neuroprotective effect of compounds 9, 16, 22, 23 and 62 (100 nM) against the activation of caspase-3 mediated by staurosporine in ^Q111/Q111 cells infected with lentivirus expressing the complete human DREAM protein. The caspase-3 activity was measured after 1 h of pre-incubation of the compounds (100 nM) and subsequent exposure for 5 h of staurosporine at 1 μM. RP: Repaniglida.
as §2

SMILES | inhibitory effect of the Kv4.3+DREAM current (% decrease of the amount of charge passing through the membrane) (Kv4.3+DREAM channels) | inhibitory effect of the Kv4.3 current in the absence of DREAM (% decrease of the amount of charge passing through the membrane) (Kv4.3 channels) | selectivity of Kv4.3 current inhibition for the presence of DREAM (Kv4.3+DREAM channels; Kv4.3+DREAM versus Kv4.3 only) | release of LDH (lactate dehydrogenase) mediated by H2O2, neuroprotective effect [1] | activation of caspase-3 mediated by staurosporine, neuroprotective effect [2]
CCCCc1ccc(-c2ccc(C(=O)O)c(NC(=O)Cc3ccc(Cl)c(Cl)c3)c2)cc1 [Compound 35, 2-[2-(3,4-dichlorophenyl)acetylamino]-4-(4′-n-butylphenyl)benzoic acid] | only inhibit the Kv4.3 current in the presence of DREAM | only inhibit the Kv4.3 current in the presence of DREAM | – | – | –
O=C(Cc1ccc(Cl)c(Cl)c1)Nc1ccc(-c2ccccc2)cc1C(=O)O [Compound 42, 2-[2-(3,4-dichlorophenyl)acetylamino]-5-phenylbenzoic acid] | only inhibit the Kv4.3 current in the presence of DREAM | only inhibit the Kv4.3 current in the presence of DREAM | – | – | –
COC(=O)[C@@H](Cc1cn(C(c2ccccc2)(c2ccccc2)c2ccccc2)cn1)NC(=O)Cc1ccc(Cl)c(Cl)c1 [Compound 62, (2R)-2-[2-(3,4-dichlorophenyl)acetylamino]-3-(1-trityl-1H-imidazol-4-yl)methyl propanoate] | similarly inhibits the current generated by the Kv4.3 channels to that of the Kv4.3 channels in the presence of DREAM | similarly inhibits the current generated by the Kv4.3 channels | has no selectivity | lowest LDH release | lowest activation of caspase-3
